Measurements reported in the supplement of paper PMC6045584.
± gives the standard deviation of the averaged measurements.

Key:
CARBOPLATIN [1] = compound: T1, O=C(O)C1(C(=O)O)CCC1.[NH2-].[NH2-].[Pt+2] [CARBOPLATIN]; experiment: area under dose-response curve of surviving fraction (unscaled, Aref=0) (surviving fraction x log10(nM)); higher = more resistant; conditions: exposure time: 5 days; dose range 0.5-1000 nM
How it was run: (§1)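 Each tumour cell line was screened three times in 384-well plates, receiving eight inhibitor concentrations from 0.5 to 1000 nM for five days. CellTiter-Glo luminescence gave viability, normalised to DMSO-only wells. Using the drc R package, surviving fractions were fitted with 3-parameter logistic dose-response curves, and the unscaled activity area over log10 dose (Aref = 0) was taken as the area under the curve.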

GEFITINIB [2] = compound: T2, COc1cc2ncnc(Nc3ccc(F)c(Cl)c3)c2cc1OCCCN1CCOCC1 [GEFITINIB]; experiment: as above; conditions: exposure time: 5 days; dose range 0.5-1000 nM
How it was run: as §1

[3] = compound: CC(=O)c1c(C)c2cnc(Nc3ccc(N4CCNCC4)cn3)nc2n(C2CCCC2)c1=O; experiment: as above; conditions: exposure time: 5 days; dose range 0.5-1000 nM
How it was run: as §1

YM155 [4] = compound: T3, COCC[n+]1c2c(n(Cc3cnccn3)c1C)C(=O)c1ccccc1C2=O [YM155]; experiment: as above; conditions: exposure time: 5 days; dose range 0.5-1000 nM
How it was run: as §1

CELECOXIB [5] = compound: T4, Cc1ccc(-c2cc(C(F)(F)F)nn2-c2ccc(S(N)(=O)=O)cc2)cc1 [CELECOXIB]; experiment: as above; conditions: exposure time: 5 days; dose range 0.5-1000 nM
How it was run: as §1

[6] = compound: CC(=O)NCC(=O)N1[C@@H]2CC[C@H]1c1ccc(Nc3ncc(C(F)(F)F)c(NC4CCC4)n3)cc12; experiment: as above; conditions: exposure time: 5 days; dose range 0.5-1000 nM
How it was run: as §1

PACLITAXEL [7] = compound: T5, CC(=O)O[C@H]1C(=O)[C@@]2(C)[C@H]([C@H](OC(=O)c3ccccc3)[C@]3(O)C[C@H](OC(=O)[C@H](O)[C@@H](NC(=O)c4ccccc4)c4ccccc4)C(C)=C1C3(C)C)[C@]1(OC(C)=O)CO[C@@H]1C[C@@H]2O [PACLITAXEL]; experiment: as above; conditions: exposure time: 5 days; dose range 0.5-1000 nM
How it was run: as §1

OSI-906 [8] = compound: T6, C[C@]1(O)C[C@@H](c2nc(-c3ccc4ccc(-c5ccccc5)nc4c3)c3c(N)nccn32)C1 [OSI-906]; experiment: as above; conditions: exposure time: 5 days; dose range 0.5-1000 nM
How it was run: as §1

CAMPTOTHECIN = compound: CC[C@@]1(O)C(=O)OCc2c1cc1n(c2=O)Cc2cc3ccccc3nc2-1 [CAMPTOTHECIN]; experiment: surviving fraction relative to DMSO-only wells; higher = less growth inhibition; conditions: exposure time: 5 days
How it was run: (§2)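 Inhibitors were tested at 0.5, 1, 5, 10, 50, 100, 500 and 1000 nM, applied continuously for five days beginning 24 hours after log-phase tumour cells were seeded at 250–500 per well in 384-well plates. CellTiter-Glo luminescence served as the viability measure, expressed as surviving fraction against the median of DMSO-only wells. Each line, screened three times, was kept only with replicate Pearson r >0.7 and median Z' >0.3.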

CARBOPLATIN [9] = compound: T1, CARBOPLATIN; experiment: as above; conditions: exposure time: 5 days
How it was run: as §2

GEFITINIB [10] = compound: T2, GEFITINIB; experiment: as above; conditions: exposure time: 5 days
How it was run: as §2

[11] = compound: CC(=O)c1c(C)c2cnc(Nc3ccc(N4CCNCC4)cn3)nc2n(C2CCCC2)c1=O; experiment: as above; conditions: exposure time: 5 days
How it was run: as §2

YM155 [12] = compound: T3, YM155; experiment: as above; conditions: exposure time: 5 days
How it was run: as §2

CELECOXIB [13] = compound: T4, CELECOXIB; experiment: as above; conditions: exposure time: 5 days
How it was run: as §2

[14] = compound: CC(=O)NCC(=O)N1[C@@H]2CC[C@H]1c1ccc(Nc3ncc(C(F)(F)F)c(NC4CCC4)n3)cc12; experiment: as above; conditions: exposure time: 5 days
How it was run: as §2

PACLITAXEL [15] = compound: T5, PACLITAXEL; experiment: as above; conditions: exposure time: 5 days
How it was run: as §2

OSI-906 [16] = compound: T6, OSI-906; experiment: as above; conditions: exposure time: 5 days
How it was run: as §2

With SUM149 BREAST the “area under dose-response curve” value (CARBOPLATIN [1]) was 3.13, the “area under dose-response curve” value (GEFITINIB [2]) was 2.81 and the “area under dose-response curve” value [3] was 3.23. For the same test system, the “area under dose-response curve” value (YM155 [4]) was 1.31, the “area under dose-response curve” value (CELECOXIB [5]) was 3.68 and the “area under dose-response curve” value [6] was 2.36. For the same test system, the “area under dose-response curve” value (PACLITAXEL [7]) was 0.407, the “area under dose-response curve” value (OSI-906 [8]) was 2.61 and the surviving fraction (CAMPTOTHECIN; 10 nM) was 0.126 ± 0.0081. It also gave a surviving fraction (CAMPTOTHECIN; 50 nM) of 0.102 ± 0.0081, a surviving fraction (CAMPTOTHECIN; 100 nM) of 0.0913 ± 0.0049 and a surviving fraction (CAMPTOTHECIN; 500 nM) of 0.048 ± 0.0052. For the same test system, the surviving fraction (CAMPTOTHECIN; 1000 nM) was 0.0367 ± 0.0055, the surviving fraction (CARBOPLATIN [9]; 0.5 nM) was 1.02 ± 0.019 and the surviving fraction (CARBOPLATIN [9]; 1 nM) was 1.04 ± 0.13. The surviving fraction (CARBOPLATIN [9]; 5 nM) was 1.02 ± 0.049, the surviving fraction (CARBOPLATIN [9]; 10 nM) was 0.943 ± 0.074 and the surviving fraction (CARBOPLATIN [9]; 50 nM) was 0.909 ± 0.06. The surviving fraction (CARBOPLATIN [9]; 100 nM) was 0.905 ± 0.076, the surviving fraction (CARBOPLATIN [9]; 500 nM) was 0.927 ± 0.057 and the surviving fraction (CARBOPLATIN [9]; 1000 nM) was 0.927 ± 0.077. The surviving fraction (GEFITINIB [10]; 0.5 nM) was 1.16 ± 0.077, the surviving fraction (GEFITINIB [10]; 1 nM) was 1.15 ± 0.098 and the surviving fraction (GEFITINIB [10]; 5 nM) was 1.08 ± 0.052. The surviving fraction (GEFITINIB [10]; 10 nM) was 1.15 ± 0.12, the surviving fraction (GEFITINIB [10]; 50 nM) was 0.926 ± 0.016 and the surviving fraction (GEFITINIB [10]; 100 nM) was 0.8 ± 0.026. It also gave a surviving fraction (GEFITINIB [10]; 500 nM) of 0.487 ± 0.04, a surviving fraction (GEFITINIB [10]; 1000 nM) of 0.448 ± 0.076 and a surviving fraction ([11]; 0.5 nM) of 1.15 ± 0.042. It also gave a surviving fraction ([11]; 1 nM) of 1.09 ± 0.049, a surviving fraction ([11]; 5 nM) of 1.04 ± 0.076 and a surviving fraction ([11]; 10 nM) of 0.943 ± 0.11. For the same test system, the surviving fraction ([11]; 50 nM) was 1.1 ± 0.065, the surviving fraction ([11]; 100 nM) was 1.14 ± 0.064 and the surviving fraction ([11]; 500 nM) was 0.871 ± 0.024. For the same test system, the surviving fraction ([11]; 1000 nM) was 0.88 ± 0.07, the surviving fraction (YM155 [12]; 0.5 nM) was 0.87 ± 0.17 and the surviving fraction (YM155 [12]; 1 nM) was 1.07 ± 0.061. For the same test system, the surviving fraction (YM155 [12]; 5 nM) was 0.81 ± 0.064, the surviving fraction (YM155 [12]; 10 nM) was 0.445 ± 0.093 and the surviving fraction (YM155 [12]; 50 nM) was 0.044 ± 0.001. The surviving fraction (YM155 [12]; 100 nM) was 0.0257 ± 0.0035, the surviving fraction (YM155 [12]; 500 nM) was 0.0203 ± 0.0032 and the surviving fraction (YM155 [12]; 1000 nM) was 0.023 ± 0.0036. The surviving fraction (CELECOXIB [13]; 0.5 nM) was 1.1 ± 0.056, the surviving fraction (CELECOXIB [13]; 1 nM) was 1.09 ± 0.021 and the surviving fraction (CELECOXIB [13]; 5 nM) was 1.2 ± 0.035. It also gave a surviving fraction (CELECOXIB [13]; 10 nM) of 1.16 ± 0.057, a surviving fraction (CELECOXIB [13]; 50 nM) of 1.08 ± 0.021 and a surviving fraction (CELECOXIB [13]; 100 nM) of 1.09 ± 0.13. The surviving fraction (CELECOXIB [13]; 500 nM) was 1.06 ± 0.04, the surviving fraction (CELECOXIB [13]; 1000 nM) was 1.12 ± 0.13 and the surviving fraction ([14]; 0.5 nM) was 0.949 ± 0.11. For the same test system, the surviving fraction ([14]; 1 nM) was 1.02 ± 0.11, the surviving fraction ([14]; 5 nM) was 1.07 ± 0.089 and the surviving fraction ([14]; 10 nM) was 0.986 ± 0.056. The surviving fraction ([14]; 50 nM) was 0.67 ± 0.074, the surviving fraction ([14]; 100 nM) was 0.389 ± 0.071 and the surviving fraction ([14]; 500 nM) was 0.267 ± 0.029. The surviving fraction ([14]; 1000 nM) was 0.224 ± 0.032, the surviving fraction (PACLITAXEL [15]; 0.5 nM) was 0.809 ± 0.053 and the surviving fraction (PACLITAXEL [15]; 1 nM) was 0.452 ± 0.11. It also gave a surviving fraction (PACLITAXEL [15]; 5 nM) of 0.0573 ± 0.004, a surviving fraction (PACLITAXEL [15]; 10 nM) of 0.0463 ± 0.0085 and a surviving fraction (PACLITAXEL [15]; 50 nM) of 0.0357 ± 0.00058. For the same test system, the surviving fraction (PACLITAXEL [15]; 100 nM) was 0.0373 ± 0.0038, the surviving fraction (PACLITAXEL [15]; 500 nM) was 0.0337 ± 0.006 and the surviving fraction (PACLITAXEL [15]; 1000 nM) was 0.0307 ± 0.0023. For the same test system, the surviving fraction (OSI-906 [16]; 0.5 nM) was 0.923 ± 0.08, the surviving fraction (OSI-906 [16]; 1 nM) was 0.951 ± 0.079 and the surviving fraction (OSI-906 [16]; 5 nM) was 0.839 ± 0.035. The surviving fraction (OSI-906 [16]; 10 nM) was 0.79 ± 0.035, the surviving fraction (OSI-906 [16]; 50 nM) was 0.827 ± 0.2 and the surviving fraction (OSI-906 [16]; 100 nM) was 0.782 ± 0.082. The surviving fraction (OSI-906 [16]; 500 nM) was 0.581 ± 0.078 and the surviving fraction (OSI-906 [16]; 1000 nM) was 0.553 ± 0.034.
